In patent US8067430B1, “Anti-HIV activity of the opioid antagonist naloxone” (University of South Florida, priority 2003, dated 2011):
Counter-ions that a name gives are not always drawn.

What was measured:
[1] = test system: HIV-1 gp120 (external envelope glycoprotein); assay: Immunoblot (Western blot) of gp120 in lysates of HIV infected Supt 1 cells; format: cell-based, HIV-1MN
Description: The expression of the essential HIV coat protein gp120 is measured by this technique. Western Blot analysis of gp120 detected with a murine anti-gp120 monoclonal antibody from HIV-1 infected cells treated with naloxone or AZT. HIV-MN infected Supt 1 cells treated will different molar concentrations of naloxone or AZT. Cells were lysed at 3 days after infection of the cells with cell free HIV-1MN and 100 μg of the lysate was loaded onto SDS-PAGE, transferred onto a Hybond ECL membrane and detected with an anti-gp120 monoclonal antibody. VC=viral control (infected cells with no drug treatment).
200TCID-50 per milliliter (tissue culture infectious dose) of HIV-MN cell free virus was used to infect 500,000/milliliter of a human T cell line (called SupTI) in the presence (at a range of concentrations) or absence (control) of naloxone-HC1/or AZT. The TCID-50 is an amount of virus which will infect 50% of non-infected target cells. The virus+cells+drugs (naloxone or AZT) were incubated at 37 degrees Celsius in an atmosphere of 5% carbon dioxide for three days. Cells were lysed by using a detergent 1% Triton-X100. This preparation was frozen in liquid nitrogen and thawed at 37 degrees Celsius for three cycles. The preparation was vortexed vigorously for 20 seconds at the end of each cycle. Samples were then stored at −80 degrees Celsius until analysis. […]

recombinant RT = target: T1, recombinant RT (Human immunodeficiency virus type 1 group M subtype B, UniProt P04585); assay: Effect on recombinant RT; format: biochemical; settings: different molar concentrations; protein not within the HIV viral lysate
T1 construct: effect of different molar concentrations of naloxone on recombinant RT

[2] = test system: reverse transcriptase activity in HIV-MN infected Supt 1 cells; assay: RT activity assay on lysates of HIV-MN infected, drug-treated Supt 1 cells; format: cell-based
Description: 200TCID-50 per milliliter (tissue culture infectious dose) of HIV-MN cell free virus was used to infect 500,000/milliliter of a human T cell line (called SupTI) in the presence (at a range of concentrations) or absence (control) of naloxone-HC1/or AZT. The TCID-50 is an amount of virus which will infect 50% of non-infected target cells. The virus+cells+drugs (naloxone or AZT) were incubated at 37 degrees Celsius in an atmosphere of 5% carbon dioxide for three days. Cells were lysed by using a detergent 1% Triton-X100. This preparation was frozen in liquid nitrogen and thawed at 37 degrees Celsius for three cycles. The preparation was vortexed vigorously for 20 seconds at the end of each cycle. Samples were then stored at −80 degrees Celsius until analysis. Total RNA from the samples were prepared by using the Tri-reagent assay and aliquoted and stored at −80 degrees Celsius until RT-PCR (reverse transcriptase-polymerase chain reaction) analysis.
A 96 well microplate was coated with 200 μl/well of a 40 mg/ml solution of polyA and incubated at room temperature overnight with rocking. […] The color reaction in the wells was measured spectrophotometrically. Color development was proportional to the amount of RT in the wells and quantitation was made based upon a standard curve of using recombinant RT. […]

[3] = test system: HIV gp41 transmembrane envelope glycoprotein RNA; assay: RT-PCR of gp41 RNA from HIV infected target cells; format: cell-based, HIV-MN; settings: different molar concentrations, hydrochloride
Description: Total RNA from the preparations described above was used as a template for the generation of complementary DNA (cDNA). This was accomplished through the use of commercial RT-PCR kits (Gibco/BRL/Life Technologies, Inc., Rockville, Md.). […]

GADPH = assay: RT-PCR control: expression of constitutive enzyme GADPH; format: cell-based, human; settings: housekeeping gene control in RT-PCR
Description: Total RNA from the preparations described above was used as a template for the generation of complementary DNA (cDNA). This was accomplished through the use of commercial RT-PCR kits (Gibco/BRL/Life Technologies, Inc., Rockville, Md.). The gene for the HIV gp41 transmembrane envelope glycoprotein was amplified from the RT products through the use of the following PCR cycling conditions: 94 degrees Celsius for 2 minutes followed by 52 degrees Celsius for 1 minutes then followed by 32 cycles at 94 degrees Celsius for 1 minutes, 52 degrees Celsius for 1 minutes, 72 degrees Celsius for […], then PCR extension was accomplished at 72 degrees Celsius for 10 minutes. The cycles were then ended by incubation at 4 degrees Celsius for 16 hours. […] (microliters) of PCR products were then loaded onto a 1.5% agarose gel containing 5 μg/ml of ethidium bromide. Bands in the gel with a size of 1.2 kb was considered to be gp41 based upon the primers used in the assay: Primer Sequences are as follows: Sense: 5 prime-[…]-3 prime (SEQ ID NO:1); Antisense 5 prime-[…]-3 prime (SEQ ID NO:2). In order to eliminate the possibility that the drug treatments could have an inhibitory effect on the RT used in the RT-PCR reaction rather than the HIV RT a constitutive (i.e. always expressed) enzyme called GADPH was used as a control. […]

C=CCN1CC[C@]23c4c5ccc(O)c4O[C@H]2C(=O)CC[C@@]3(O)[C@H]1C5 [naloxone, naloxone hydrochloride]
expression of gp120 protein (Western blot) ([1]; HIV infected lymphocytes): significantly depress expression
inhibition of HIV as measured by gp120 expression, compared with AZT ([1]; equivalent molar concentrations, cells lysed 3 days after infection): as effective, or more effective, than equivalent molar concentrations of AZT
effect on recombinant RT (recombinant RT): direct inhibitory effect on RT
inhibition of RT activity in HIV infected cells compared with AZT ([2]; identical molar dose range of AZT): at least as effective as AZT
RT activity in HIV-MN infected Supt 1 cells ([2]; treatment dose increasing from 10^-11 to 10^-4 M, 3 days, vs no drug control): RT activity decreases
expression of RNA for envelope glycoprotein gp41 (RT-PCR) [3]: inhibiting expression of RNA for the envelope glycoprotein gp41
expression of RNA for envelope glycoprotein gp41 (RT-PCR) ([3]; listed as Naloxone): significantly depress expression
effect of drug treatment on expression of GADPH (GADPH): No effect
